# Source: US20230010886A1 (SUZHOU PUHE BIOPHARMA CO., LTD., priority 2019, published 2023)
# Biological target: T1, Full length SHP2 enzyme (Homo sapiens, UniProt Q06124)
# T1 construct: Full length SHP2 enzyme (diluted to 0.1 nM in reaction buffer)
# T1 sequence (Q06124 1-593): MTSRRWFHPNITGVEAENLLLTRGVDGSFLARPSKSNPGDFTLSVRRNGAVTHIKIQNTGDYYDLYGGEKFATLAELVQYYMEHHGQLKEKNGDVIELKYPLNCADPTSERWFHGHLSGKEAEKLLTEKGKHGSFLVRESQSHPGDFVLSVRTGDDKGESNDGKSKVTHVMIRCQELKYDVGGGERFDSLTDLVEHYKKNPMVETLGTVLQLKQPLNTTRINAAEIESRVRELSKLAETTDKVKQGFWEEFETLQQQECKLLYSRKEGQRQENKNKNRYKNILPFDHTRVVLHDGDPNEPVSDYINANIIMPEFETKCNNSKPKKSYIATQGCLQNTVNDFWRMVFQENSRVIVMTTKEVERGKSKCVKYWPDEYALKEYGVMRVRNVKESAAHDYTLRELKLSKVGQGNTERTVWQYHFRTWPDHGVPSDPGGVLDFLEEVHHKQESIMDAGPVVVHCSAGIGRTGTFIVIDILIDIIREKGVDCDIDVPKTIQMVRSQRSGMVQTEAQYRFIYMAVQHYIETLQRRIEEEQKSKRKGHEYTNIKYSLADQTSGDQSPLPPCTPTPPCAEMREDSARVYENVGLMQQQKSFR
# Assay: SHP2 phosphatase assay
# Assay type: biochemical
# Conditions: 1 μM IRS-1 peptide, DiFMUP substrate
# Experimental: IC50 values were determined at room temperature in 384-well black polystyrene plate, using a final reaction volume of 15 μL and the following assay buffer conditions: 60 mM Hepes (pH=7.2), 75 mM NaCl, 75 mM KCl, and 1 mM EDTA, 0.05% P-20, 5 mM dithiothreitol (DTT). Full length SHP2 enzyme (diluted to 0.1 nM in reaction buffer) were co-incubated with 1 μM IRS-1 peptide and 0.01 nM to 10 μM compounds of the disclosure for 60 min. The surrogate substrate DiFMUP (5 μL, 100 μM) was added, and incubated at rt for 60 min. The reaction was then quenched by the addition of 5 μL of a 40 μM solution of bpV(Phen). The fluorescence signal was monitored using a microplate reader (Envision, Perkin-Elmer) using excitation and emission wavelengths of 360 nm and 450 nm, respectively. The inhibitor dose-response curves were analyzed using normalized IC50 regression curve fitting with control-based normalization.
row,Compound,IC50 [nM]
1,"CC1(CN)CCN(c2ncc(Sc3cccc(NC(=O)c4c(O)nc5cnccn5c4=O)c3Cl)[nH]c2=O)CC1 [Example 30, N-(3-((5-(4-(aminomethyl)-4-methylpiperidin-1-yl)-6-oxo-1,6-dihydropyrazin-2-yl)thio)-2-chlorophenyl)-2-hydroxy-4-oxo-4H-pyrazino[1,2-a]pyrimidine-3-carboxamide]",≤ 50
2,"CC1(CN)CCN(c2ncc(Sc3cccc(NC(=O)c4c(O)nc5n(c4=O)CCCC5)c3Cl)[nH]c2=O)CC1 [Example 33, N-(3-((5-(4-(aminomethyl)-4-methylpiperidin-1-yl)-6-oxo-1,6-dihydropyrazin-2-yl)thio)-2-chlorophenyl)-2-hydroxy-4-oxo-6,7,8,9-tetrahydro-4H-pyrido [1,2-a]pyrimidine-3-carboxamide]",≤ 50
3,"CC1(CN)CCN(c2nc3[nH]nc(Nc4cccc(Cl)c4Cl)c3c(=O)[nH]2)CC1 [Example 34, 6-(4-(aminomethyl)-4-methylpiperidin-1-yl)-3-((2,3-dichlorophenyl)amino)-1,5-dihydro-4H-pyrazolo[3,4-d]pyrimidin-4-one]",≤ 50
4,"CC1(CN)CCN(c2nc3[nH]nc(Oc4cccc(Cl)c4Cl)c3c(=O)[nH]2)CC1 [Example 35, 6-(4-(aminomethyl)-4-methylpiperidin-1-yl)-3-(2,3-dichlorophenoxy)-1,5-dihydro-4H-pyrazolo[3,4-d]pyrimidin-4-one]",≤ 50
5,"NC1CCCC(n2ccc(-c3cccc(Cl)c3Cl)cc2=O)C1 (stereo not shown) [Example 74, 1-(3-aminocyclohexyl)-4-(2,3-dichlorophenyl)pyridin-2(1H)-one]",≤ 50
6,"NC1C2CN(c3ncc(Sc4cccc(Cl)c4Cl)[nH]c3=O)CC12 (stereo not shown) [Example 86, 3-(6-amino-3-azabicyclo[3.1.0]hexan-3-yl)-6-((2,3-dichlorophenyl)thio)pyrazin-2(1H)-one]",≤ 50
7,"N[C@@H]1c2ccccc2OC12CCN(c1ncc(Sc3cccc(Cl)c3Cl)[nH]c1=O)CC2 [Example 87, (R)-3-(3-amino-3H-spiro[benzofuran-2,4′-piperidin]-1′-yl)-6-((2,3-dichlorophenyl)thio)pyrazin-2 (1H)-one]",≤ 50
8,"N[C@@H]1COCC12CCN(c1ncc(Sc3ccnc(Cl)c3Cl)[nH]c1=O)CC2 [Example 88, (S)-3-(4-amino-2-oxa-8-azaspiro[4.5]decan-8-yl)-6-((2,3-dichloropyridin-4-yl)thio)pyrazin-2(1H)-one]",≤ 50
9,"C[C@@H]1OCC2(CCN(c3ncc(Sc4cc[nH]c(=O)c4Cl)[nH]c3=O)CC2)[C@@H]1N [Example 107, 3-((3S,4S)-4-amino-3-methyl-2-oxa-8-azaspiro[4.5]decan-8-yl)-6-((3-chloro-2-oxo-1,2-dihydro-pyridin-4-yl)thio)pyrazin-2(1H)-one]",≤ 50
10,"NC1c2nc(Cl)sc2CC12CCN(c1ncc(Sc3ccnc(Cl)c3Cl)[nH]c1=O)CC2 (stereo not shown) [Example 116, 3-(4-amino-2-chloro-4,6-dihydrospiro[cyclopenta[d]thiazole-5,4′-piperidin]-1′-yl)-6-((2,3-dichloropyridin-4-yl)thio)pyrazin-2(1H)-one]",≤ 50
11,"Nc1nccc(Sc2cnc(N3CCC4(CC3)Cc3sc(Cl)nc3C4N)c(=O)[nH]2)c1Cl (stereo not shown) [Example 117, 3-(4-amino-2-chloro-4,6-dihydrospiro[cyclopenta[d]thiazole-5,4′-piperidin]-1′-yl)-6-((2-amino-3-chloropyridin-4-yl)thio)pyrazin-2(1H)-one]",≤ 50
12,"N[C@@H]1c2ccccc2OC12CCN(c1ncc(Sc3ccnc(Cl)c3Cl)[nH]c1=O)CC2 [Example 123, (R)-3-(3-amino-3H-spiro[benzofuran-2,4′-piperidin]-1′-yl)-6-((2,3-dichloropyridin-4-yl)thio)pyrazin-2(1H)-one]",≤ 50
13,"C[C@@H]1OCC2(CCN(c3ncc(Sc4ccnc(N)c4F)[nH]c3=O)CC2)[C@@H]1N [Example 127, 6-((2-amino-3-fluoropyridin-4-yl)thio)-3-((3S,4S)-4-amino-3-methyl-2-oxa-8-azaspiro[4.5]decan-8-yl)pyrazin-2(1H)-one]",≤ 1000
14,"C[C@@H]1OCC2(CCN(c3ncc(Sc4ccncc4Cl)[nH]c3=O)CC2)[C@@H]1N [Example 128, 3-((3S,4S)-4-amino-3-methyl-2-oxa-8-azaspiro[4.5]decan-8-yl)-6-((3-chloropyridin-4-yl)thio) pyrazin-2(1H)-one]",≤ 50
15,"Nc1nccc(Sc2cnc(N3CCC4(CC3)Cc3scnc3C4N)c(=O)[nH]2)c1Cl (stereo not shown) [Example 130, 6-((2-amino-3-chloropyridin-4-yl)thio)-3-(4-amino-4,6-dihydrospiro[cyclopenta[d]thiazole-5,4′-piperidin]-1′-yl)pyrazin-2(1H)-one]",≤ 50
16,"COc1ccc2c(c1)CC1(CCN(c3ncc(Sc4cccc(Cl)c4Cl)[nH]c3=O)CC1)[C@@H]2N [Example 131, (S)-3-(1-amino-5-methoxy-1,3-dihydrospiro[indene-2,4′-piperidin]-1′-yl)-6-((2,3-dichlorophenyl)thio)pyrazin-2 (1H)-one]",≤ 50
17,"Nc1nccc(Sc2cnc(N3CCC4(CCC[C@@H]4N)CC3)c(=O)[nH]2)c1Cl [Example 133, (S)-6-((2-amino-3-chloropyridin-4-yl)thio)-3-(1-amino-8-azaspiro[4.5]decan-8-yl)pyrazin-2(1H)-one]",≤ 50

# Continued, values first:
row,IC50 [nM],Compound
1,≤ 50,"NC1C2CC2CC12CCN(c1ncc(Sc3cccc(Cl)c3Cl)[nH]c1=O)CC2 (stereo not shown) [Example 13, 3-(2-aminospiro[bicyclo[3.1.0]hexane-3,4′-piperidin]-1′-yl)-6-((2,3-dichlorophenyl)thio)pyrazin-2 (1H)-one]"
2,≤ 50,"CN1C(=O)C(C(=O)Nc2cccc(Sc3cnc(N4CCC(C)(CN)CC4)c(=O)[nH]3)c2Cl)=C(O)C1(C)C [Example 28, N-(3-((5-(4-(aminomethyl)-4-methylpiperidin-1-yl)-6-oxo-1,6-dihydropyrazin-2-yl)thio)-2-chlorophenyl)-4-hydroxy-1,5,5-trimethyl-2-oxo-2,5-dihydro-1H-pyrrole-3-carboxamide]"
3,≤ 50,"CC1(CN)CCN(c2ncc(Sc3cccc(NC(=O)c4c(O)nc5[nH]ccn5c4=O)c3Cl)[nH]c2=O)CC1 [Example 32, N-(3-((5-(4-(aminomethyl)-4-methylpiperidin-1-yl)-6-oxo-1,6-dihydropyrazin-2-yl)thio)-2-chlorophenyl)-7-hydroxy-5-oxo-1,5-dihydroimidazo[1,2-a]pyrimidine-6-carboxamide]"
4,≤ 50,"Cn1c(N2CCC(C)(CN)C2)nc(N)c(Sc2cccc(Cl)c2Cl)c1=O (stereo not shown) [Example 52, 6-amino-2-(3-(aminomethyl)-3-methylpyrrolidin-1-yl)-5-((2,3-dichlorophenyl)thio)-3-methylpyrimidin-4(3H)-one]"
5,≤ 50,"C[C@@H]1OCC2(CCN(c3ncc(Sc4ccnc(N)c4Cl)nc3O)CC2)[C@@H]1N [Example 77, 6-((2-amino-3-chloropyridin-4-yl)thio)-3-((3S,4S)-4-amino-3-methyl-2-oxa-8-azaspiro[4.5]decan-8-yl)pyrazin-2(1H)-one]"
6,≤ 50,"COc1cccc(Sc2cnc(N3CCC4(CC3)CO[C@@H](C)[C@H]4N)c(=O)[nH]2)c1Cl [Example 79, 3-((3S,4S)-4-amino-3-methyl-2-oxa-8-azaspiro[4.5]decan-8-yl)-6-((2-chloro-3-methoxyphenyl)thio)pyrazin-2 (1H)-one]"
7,≤ 50,"COc1nccc(Sc2cnc(N3CCC4(CC3)CO[C@@H](C)[C@H]4N)c(=O)[nH]2)c1Cl [Example 80, 3-((3S,4S)-4-amino-3-methyl-2-oxa-8-azaspiro[4.5]decan-8-yl)-6-((3-chloro-2-methoxypyridin-4-yl)thio)pyrazin-2(1H)-one]"
8,≤ 50,N[C@@H]1c2ccccc2CC12CCN(c1ncc(Sc3cccc(Cl)c3Cl)[nH]c1=O)CC2 [Example 108]
9,≤ 50,"Nc1nccc(Sc2cnc(N3CCC4(CC3)Oc3ccccc3[C@H]4N)c(=O)[nH]2)c1Cl [Example 124, (R)-6-((2-amino-3-chloropyridin-4-yl)thio)-3-(3-amino-3H-spiro[benzofuran-2,4′-piperidin]-1′-yl)pyrazin-2(1H)-one]"
10,≤ 50,"C[C@@H]1OCC2(CCN(c3ncc(Sc4cccc(N)c4F)[nH]c3=O)CC2)[C@@H]1N [Example 126, 6-((3-amino-2-fluorophenyl)thio)-3-((3S,4S)-4-amino-3-methyl-2-oxa-8-azaspiro[4.5]decan-8-yl)pyrazin-2(1H)-one]"
11,≤ 50,"N[C@@H]1c2ccccc2NC12CCN(c1ncc(Sc3cccc(Cl)c3Cl)[nH]c1=O)CC2 [Example 132, (R)-3-(3-aminospiro[indoline-2,4′-piperidin]-1′-yl)-6-((2,3-dichlorophenyl)thio)pyrazin-2 (1H)-one]"
